Values quoted from earlier work, collected in patent US20240047033A1, “MULTI-OMICS METHODS FOR PRECISION MEDICINE” (UNIVERSITY OF PITTSBURGH-OF THE COMMONWEALTH SYSTEM OF …, priority 2020, published 2024).

Test system: non-small cell lung cancer (NSCLC) tumors
Conditions: pretreated chemorefractory NSCLC patients, Erlotinib monotherapy, 28 patients

SMILES: C#Cc1cccc(Nc2ncnc3cc(OCCOC)c(OCCOC)cc23)c1 [Erlotinib]
- time within which all treated patients progressed: six
